Values of other authors in US11459445B2, “Composition and molded body” (SUMITOMO CHEMICAL COMPANY, LIMITED, priority 2018, dated 2022).

Test system: C. violaceum CV026
Conditions: N-hexanoyl homoserine lactone added; compared with no caffeine; Sensors 2013, 13, 5117-5129

Cn1c(=O)c2c(ncn2C)n(C)c1=O [caffeine]
amount of violet pigment (violacein) produced: smaller
